Data published in patent US20230321067A1, “DOSING REGIMEN COMPRISING 3-(1-OXOISOINDOLIN-2-YL)PIPERIDINE-2,6-DIONE DERIVATIVES” (Novartis AG, priority 2020, published 2023).
Read-outs that look alike come from different tables or passages of the source.

Legend:
IKZF1 (Ikaros) = target: T1, IKZF1 (Ikaros) (Homo sapiens, UniProt Q13422); assay: IKZF1 degradation in vitro (FIG. 1); format: cell-based
T1 construct: ProLabel; expressed in transfected cells; host or cells: HEK293T
From the text: Although the specific transcriptional targets of IKZF2 remain to be defined, IKZF2 binds to and represses transcription from the IL-2 promoter region (Baine 2013). […] Finally, an in vitro assay recapitulating hallmarks of T cell dysfunction/exhaustion, by sequential TCR stimulation of isolated primary human T cells, was used to test the hypothesis that […] would rescue the exhausted phenotype and enhance Teff cell activity. […] In addition to IKZF1, other known cereblon substrates including translation termination factor G1 to S phase transition 1 (GSPT1) are not degraded by I-57 (FIG. 1).

[1] = Single oral dose PK in cynomolgus monkey; format: in vivo; conditions: for Cmax / AUC(0-t): plasma; for Cmax / AUC(0-t) / AUC24 h/Dose / Cmax/Dose: unbound, n = 3, mean ± SD; for AUC(0-t): read-out: AUC24 h
Procedure: The PK/PD relationship of I-57 was examined in cynomolgus monkeys after a single oral dose of 0.01, 0.1 or 1 mg/kg. I-57 plasma concentration and IKZF2 expression (as determined by flow cytometry) in FOXP3+ T cells from PBMCs were determined (FIG. 4 and FIG. 5).

peripheral T cells = assay: Immunization response (KLH/Squalene) in cynomolgus monkey: anti-KLH IG and Ki67 T cells; format: in vivo
Procedure: The PK/PD relationship of I-57 was further examined in cynomolgus monkeys after repeated daily oral doses of 0.1 and 3 mg/kg. In this study, a cohort of animals were initially immunized with an antigen-adjuvant mixture (KLH/Squalene). The experiment was designed to assess the effect of I-57 exposure, and the resulting IKZF2 degradation, on immune response during immunization to test the hypothesis that IKZF2 degradation would result in increased proliferation of stimulated T-cells. In the experiment, daily I-57 oral treatment was initiated 5 days after immunization. An immunization booster dose was administered on day 15. I-57 plasma concentration and IKZF2 expression (as determined by flow cytometry) in FOXP3+ T cells from PBMCs were determined (FIG. 9A and FIG. 9B).
In order to measure the impact of I-57 treatment on the immune response following immunization, serum anti-KLH IG levels were measured longitudinally, and levels of T cell activation were measured in PBMCs by flow cytometry. […] In contrast, the proportion of proliferative peripheral T cells (denoted by Ki67 staining) was increased in the highest dose group (3 mg/kg) in the recall response phase, compared to immunization alone.

[2] = In vivo non-clinical PK, mouse
Procedure: The in vivo non-clinical PK profile of I-57 was investigated in mouse, rat, dog and cynomolgus monkey using I-57 free base. […] After p.o. administration, the absorption of I-57 was rapid with peak blood concentration (Tmax) occurring between 1 and 4 hours. […] In high dose PK and toxicology studies with I-57 the exposures in mouse, rat and monkey increased with dose.
The binding to plasma protein of I-57 in vitro was moderate in all species, with an observed difference between rodents (73% in mouse, 76% in rat) and non-rodents (52% in dog and monkey, 54% in human). Blood-to-plasma ratios were in the range of 0.7-1.8 (human 1.1-1.3). […] Based on results with non-radiolabeled I-57 in the dog, a significant amount of unchanged I-57 was renally eliminated (˜20% of dose).

CYP2C8 [3] = target: T2, CYP2C8 (Homo sapiens, UniProt P10632); assay: CYP inhibition: CYP2C8; format: in vitro ADME; conditions: I-57 concentrations of up to 100 μM
T2 sequence (P10632 whole entry): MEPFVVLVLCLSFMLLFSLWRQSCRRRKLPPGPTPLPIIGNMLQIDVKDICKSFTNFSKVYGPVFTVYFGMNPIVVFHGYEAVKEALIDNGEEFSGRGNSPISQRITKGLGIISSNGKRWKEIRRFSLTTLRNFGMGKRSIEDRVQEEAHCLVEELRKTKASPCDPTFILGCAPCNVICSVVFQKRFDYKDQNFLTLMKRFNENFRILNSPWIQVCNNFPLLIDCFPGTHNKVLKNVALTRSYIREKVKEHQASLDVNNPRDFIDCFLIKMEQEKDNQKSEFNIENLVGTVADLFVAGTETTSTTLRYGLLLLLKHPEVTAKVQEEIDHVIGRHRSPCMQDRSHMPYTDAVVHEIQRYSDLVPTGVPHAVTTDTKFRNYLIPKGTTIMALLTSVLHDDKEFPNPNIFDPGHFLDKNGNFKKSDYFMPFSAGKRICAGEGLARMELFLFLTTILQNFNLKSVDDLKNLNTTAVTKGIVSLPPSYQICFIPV

CYP2C19 = CYP2C19 (Homo sapiens, UniProt P33261); assay: CYP inhibition: CYP2C19; format: in vitro ADME; conditions: I-57 concentrations of up to 100 μM
CYP2C19, sequence (P33261 whole entry): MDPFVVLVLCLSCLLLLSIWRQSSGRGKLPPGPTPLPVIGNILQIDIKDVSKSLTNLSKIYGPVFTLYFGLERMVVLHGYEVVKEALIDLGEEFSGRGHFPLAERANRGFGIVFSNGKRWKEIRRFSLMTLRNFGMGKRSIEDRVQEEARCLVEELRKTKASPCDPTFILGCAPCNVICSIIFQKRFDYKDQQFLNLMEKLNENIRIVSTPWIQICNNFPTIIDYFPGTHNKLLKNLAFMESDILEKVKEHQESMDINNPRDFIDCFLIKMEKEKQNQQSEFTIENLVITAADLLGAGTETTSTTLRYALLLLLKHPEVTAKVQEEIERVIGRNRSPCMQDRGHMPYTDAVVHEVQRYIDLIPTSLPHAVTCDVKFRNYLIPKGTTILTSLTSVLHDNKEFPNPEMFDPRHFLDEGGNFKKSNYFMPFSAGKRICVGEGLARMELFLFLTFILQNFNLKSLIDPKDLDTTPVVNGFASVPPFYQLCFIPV

CYP2E1 = CYP2E1 (Homo sapiens, UniProt P05181); assay: CYP inhibition: CYP2E1; format: in vitro ADME; conditions: I-57 concentrations of up to 100 μM
CYP2E1, sequence (P05181 whole entry): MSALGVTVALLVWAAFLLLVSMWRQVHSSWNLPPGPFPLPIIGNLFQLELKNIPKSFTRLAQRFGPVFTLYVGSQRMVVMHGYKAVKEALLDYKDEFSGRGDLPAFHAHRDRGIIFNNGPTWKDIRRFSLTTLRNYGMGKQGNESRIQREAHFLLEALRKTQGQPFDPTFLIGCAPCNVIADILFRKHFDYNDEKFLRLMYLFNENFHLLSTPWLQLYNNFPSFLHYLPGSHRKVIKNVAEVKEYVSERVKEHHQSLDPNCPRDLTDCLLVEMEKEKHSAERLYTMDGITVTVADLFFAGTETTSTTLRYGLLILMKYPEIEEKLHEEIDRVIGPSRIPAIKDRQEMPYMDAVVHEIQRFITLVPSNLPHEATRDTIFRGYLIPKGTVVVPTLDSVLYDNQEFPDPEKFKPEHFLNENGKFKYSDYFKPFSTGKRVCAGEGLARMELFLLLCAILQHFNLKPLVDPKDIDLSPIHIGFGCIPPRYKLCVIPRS

CYP2C8 [4] = target: T2, CYP2C8; assay: Time-dependent CYP inhibition: CYP2C8; format: in vitro ADME; conditions: I-57 concentrations of up to 100 μM
[5] = Toxicology in rats (5-day and 4-week GLP studies); format: in vivo
From the text: The non-clinical safety profile of I-57 was established in vitro, and in vivo in rats and cynomolgus monkeys in studies up to 4-weeks duration. Based on the outcome of these studies, QTc interval prolongation was identified as the principal safety signal for I-57. There were other toxicities such as diarrhea and vomiting in monkeys, and mortality, clinical signs and target organ toxicities in rats; however, these occurred at exposures far above those expected to result in clinical activity.
Clinical signs, decreases in body weight and food consumption, and clinical pathology changes reflecting inflammation, renal and liver injury, and stress were generally evident in the pre-terminal animals. Kidney toxicity was evident in rats at doses >100 mg/kg/day and was characterized by increased weight, hematuria, proteinuria, with or without increased blood urea and creatinine, degeneration, regeneration and inflammation at 300 mg/kg/day.

IKZF2 = IKZF2 (Homo sapiens, UniProt Q96SW2+Q9UKS7); assay: Multi-dose PK/PD study in human PBMC adoptive transfer mouse model harboring MDA-MB231 xenografts: IKZF2 expression in human CD4+FOXP3+ regulatory T cells (FIG. 6, 7); format: in vivo; design: endogenous in cells; host or cells: primary human PBMCs; conditions: 14 daily oral doses of 0.3, 1, 3 and 30 mg/kg, hPBMC AdT mouse model
IKZF2, sequence (Q9UKS7 whole entry): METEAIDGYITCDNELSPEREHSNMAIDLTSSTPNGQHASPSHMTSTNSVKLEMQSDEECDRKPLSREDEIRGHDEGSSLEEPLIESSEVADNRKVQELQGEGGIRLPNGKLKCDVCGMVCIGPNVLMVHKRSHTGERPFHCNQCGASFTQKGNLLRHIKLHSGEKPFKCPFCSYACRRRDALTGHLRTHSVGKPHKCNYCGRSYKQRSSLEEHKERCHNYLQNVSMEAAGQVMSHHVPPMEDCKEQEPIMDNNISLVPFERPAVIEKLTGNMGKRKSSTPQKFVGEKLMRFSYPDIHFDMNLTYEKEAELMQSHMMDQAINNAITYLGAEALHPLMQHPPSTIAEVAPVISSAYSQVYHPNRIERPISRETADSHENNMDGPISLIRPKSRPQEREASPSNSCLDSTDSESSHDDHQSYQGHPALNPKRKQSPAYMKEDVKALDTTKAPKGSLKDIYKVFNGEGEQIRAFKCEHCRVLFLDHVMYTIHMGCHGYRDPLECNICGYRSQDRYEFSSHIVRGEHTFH
IKZF2, sequence (Q96SW2 whole entry): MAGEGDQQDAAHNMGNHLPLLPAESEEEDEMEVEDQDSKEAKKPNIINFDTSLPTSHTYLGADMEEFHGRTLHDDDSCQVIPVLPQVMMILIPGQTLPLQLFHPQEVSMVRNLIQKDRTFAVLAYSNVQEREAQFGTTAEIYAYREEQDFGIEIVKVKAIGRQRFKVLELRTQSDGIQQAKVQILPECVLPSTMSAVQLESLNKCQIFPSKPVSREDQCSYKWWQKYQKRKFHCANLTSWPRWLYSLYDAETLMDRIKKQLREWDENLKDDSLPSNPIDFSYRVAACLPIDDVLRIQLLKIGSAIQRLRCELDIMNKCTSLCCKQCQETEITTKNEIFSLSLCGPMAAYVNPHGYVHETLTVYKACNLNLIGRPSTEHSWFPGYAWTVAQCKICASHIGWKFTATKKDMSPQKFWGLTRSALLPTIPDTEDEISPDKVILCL
IKZF2, sequence (Q16531 whole entry partner): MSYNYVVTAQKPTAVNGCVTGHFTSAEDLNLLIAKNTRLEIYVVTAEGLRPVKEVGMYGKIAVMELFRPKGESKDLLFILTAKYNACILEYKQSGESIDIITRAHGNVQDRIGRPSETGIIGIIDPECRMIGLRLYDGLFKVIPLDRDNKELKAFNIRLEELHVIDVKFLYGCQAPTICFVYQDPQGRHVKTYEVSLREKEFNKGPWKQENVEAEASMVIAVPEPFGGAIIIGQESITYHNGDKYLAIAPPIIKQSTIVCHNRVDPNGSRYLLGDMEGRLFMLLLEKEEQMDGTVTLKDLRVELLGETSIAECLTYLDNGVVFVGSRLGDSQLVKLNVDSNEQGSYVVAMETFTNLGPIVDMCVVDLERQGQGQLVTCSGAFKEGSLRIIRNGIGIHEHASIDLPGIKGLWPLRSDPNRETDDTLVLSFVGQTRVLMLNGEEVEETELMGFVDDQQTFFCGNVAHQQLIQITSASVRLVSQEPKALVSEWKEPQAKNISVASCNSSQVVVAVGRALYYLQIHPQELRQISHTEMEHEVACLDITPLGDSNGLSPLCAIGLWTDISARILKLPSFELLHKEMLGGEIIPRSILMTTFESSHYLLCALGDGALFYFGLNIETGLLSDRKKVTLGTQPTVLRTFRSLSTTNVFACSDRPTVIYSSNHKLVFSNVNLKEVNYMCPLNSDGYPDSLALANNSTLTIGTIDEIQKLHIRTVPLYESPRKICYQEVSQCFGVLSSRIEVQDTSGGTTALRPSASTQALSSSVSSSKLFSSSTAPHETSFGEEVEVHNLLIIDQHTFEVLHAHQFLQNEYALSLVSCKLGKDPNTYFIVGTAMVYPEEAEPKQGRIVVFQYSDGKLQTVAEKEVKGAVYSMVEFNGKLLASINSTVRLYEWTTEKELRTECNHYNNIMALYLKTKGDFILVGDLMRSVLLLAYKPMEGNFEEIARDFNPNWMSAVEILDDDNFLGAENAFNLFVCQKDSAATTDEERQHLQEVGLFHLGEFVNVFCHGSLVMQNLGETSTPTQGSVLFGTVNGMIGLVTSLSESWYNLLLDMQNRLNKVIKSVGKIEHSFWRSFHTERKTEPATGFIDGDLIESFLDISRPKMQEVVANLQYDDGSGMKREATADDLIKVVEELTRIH
Procedure: FIG. 6 is a pictorial representation of the multi-dose PK/PD study design in the human PBMC adoptive transfer mouse model harboring MDA-MB231 xenografts. Fourteen consecutive daily doses of Compound I-57 was administered at 0.3 mg/kg, 1 mg/kg, 3 mg/kg or 30 mg/kg.
FIG. 7 is a graph showing the change in the IKZF2 expression in human CD4+FOXP3+ regulatory T cells isolated from MDA-MB231 tumor xenografts (Tumor) or blood (Periphery) following 14 daily oral doses of 0.3, 1, 3 and 30 mg/kg Compound I-57 administered to the hPBMC AdT model.

T1 sequence (Q96SW2 whole entry partner): as the sequence (Q96SW2 whole entry) above
T1 sequence (Q16531 whole entry partner): as the sequence (Q16531 whole entry partner) above
T1 sequence (Q13422 whole entry): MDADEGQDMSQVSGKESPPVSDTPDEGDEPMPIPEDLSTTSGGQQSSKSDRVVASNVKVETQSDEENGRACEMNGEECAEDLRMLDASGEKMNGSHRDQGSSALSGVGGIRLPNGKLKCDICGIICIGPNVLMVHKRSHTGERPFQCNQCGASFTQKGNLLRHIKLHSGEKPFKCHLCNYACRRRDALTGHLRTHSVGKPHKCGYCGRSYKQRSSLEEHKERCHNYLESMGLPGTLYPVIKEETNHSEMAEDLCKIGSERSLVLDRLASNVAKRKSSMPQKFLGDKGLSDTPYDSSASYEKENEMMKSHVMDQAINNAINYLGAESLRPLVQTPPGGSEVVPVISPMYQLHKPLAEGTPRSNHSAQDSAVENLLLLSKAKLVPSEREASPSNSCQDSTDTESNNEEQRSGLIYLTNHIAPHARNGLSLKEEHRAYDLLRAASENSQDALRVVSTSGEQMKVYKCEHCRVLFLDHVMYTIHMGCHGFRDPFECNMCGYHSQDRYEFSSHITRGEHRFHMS

## O=C1CCC(N2Cc3cc(C4CCN(Cc5ccccc5)CC4)ccc3C2=O)C(=O)N1 (stereo not shown) [Compound I-57, 3-(5-(1-benzylpiperidin-4-yl)-1-oxoisoindolin-2-yl)piperidine-2,6-dione]
IKZF1 (Ikaros)
  degradation of IKZF1: not degraded
[1]; single oral dose 0.01 mg/kg
  Cmax: 2.11 ± 0.69 ng/mL
  AUC(0-t): 14.1 ± 4.72 ng·h/mL
  AUC24 h/Dose: 1410 ± 472 (ng · h/mL)/(mg/kg)
  Cmax/Dose: 211 ± 69.1 (ng/mL)/(mg/kg)
[1]; single oral dose 0.1 mg/kg
  Cmax: 13.4 ± 2.77 ng/mL
  AUC(0-t): 102 ± 13.2 ng·h/mL
  AUC24 h/Dose: 1020 ± 136 (ng · h/mL)/(mg/kg)
  Cmax/Dose: 134 ± 27.7 (ng/mL)/(mg/kg)
[1]; single oral dose 1 mg/kg
  Cmax: 102 ± 45.3 ng/mL
  AUC(0-t): 610 ± 236 ng·h/mL
  AUC24 h/Dose: 610 ± 236 (ng · h/mL)/(mg/kg)
  Cmax/Dose: 102 ± 45.3 (ng/mL)/(mg/kg)
[1]; single oral dose 0.01, 0.1 or 1 mg/kg
  dose proportionality of exposure: slightly less than dose proportional
Peripheral T cells; 3 mg/kg, recall response phase, compared to immunization alone
  proportion of proliferative peripheral T cells (Ki67 staining): increased
Peripheral T cells; KLH/Squalene immunization, daily I-57
  Anti-IgG titers elicited by the immunization (serum anti-KLH IG): not further enhanced
[2]; between 3 mg/kg and 100 mg/kg
  dose proportionality of AUC: roughly dose proportional
[2]; blood, po
  bioavailability: 53%
[2]; brain, read-out: brain/plasma ratio
  Kp: 0.07
CYP2C8 [3]
  inhibition of CYP2C8: very little and no inhibition
CYP2C19
  inhibition of CYP2C19: very little and no inhibition
CYP2E1
  inhibition of CYP2E1: very little and no inhibition
CYP2C8 [4]
  time-dependent inhibition of CYP2C8: no apparent time-dependent inhibition
[5]; rat, in vivo
  reversibility of findings: fully reversed or showed ongoing recovery
[5]; rat, in vivo, 300 mg/kg/day
  stomach findings: mucosal hyperplasia, inflammation and degeneration in the stomach
  urinary bladder findings: Degenerative changes were present in the urinary bladder
[5]; rats
  dose at which kidney toxicity was evident: > 100 mg/kg/day
[5]; rats, females
  dose at which mortality occurred: > 300 mg/kg/day
[5]; rats, males
  dose at which mortality occurred: 1000 mg/kg
IKZF2; peripheral blood
  IKZF2 degradation (reduction of the percentage of IKZF2 positive Tregs): robust dose and exposure-dependent IKZF2 degradation
IKZF2; tumor (MDA-MB231 xenografts)
  IKZF2 degradation (reduction of the percentage of IKZF2 positive Tregs): robust dose and exposure-dependent IKZF2 degradation
